Experimental data: PubChem BioAssay AID1963849 (Molecular Pharmacology Branch, DTP, NCI, 2024)

Test system: 299254-011-R-J1-PDC complex spheroid viability
Assay: Anticancer human tumor 299254-011-R-J1-PDC patient-derived melanoma cell line growth inhibition [POLQ]
Conditions: for IC50: curve of first compound; for viability, T/C: stronger effect = lower value
In short: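 Growth inhibition in 3D: complex spheroids (tumor PDC, HUVEC, MSC) treated with POLQ inhibitor combinations; where Cmax unknown, highest tested concentration 10 microM, except SN-38 at 1 microM.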

[1] = second compound 0.0316 µM, first compound 0.0316 µM
[2] = second compound 0.0316 µM, first compound 0.1 µM
[3] = second compound 0.0316 µM, first compound 0.316 µM
[4] = second compound 0.0316 µM, first compound 1 µM
[5] = second compound 0.0316 µM, first compound 3.16 µM
[6] = second compound 0.0316 µM, first compound 10 µM
[7] = second compound 0.1 µM, first compound 0.0316 µM
[8] = second compound 0.1 µM, first compound 0.1 µM
[9] = second compound 0.1 µM, first compound 0.316 µM
[10] = second compound 0.1 µM, first compound 1 µM
[11] = second compound 0.1 µM, first compound 3.16 µM
[12] = second compound 0.1 µM, first compound 10 µM
[13] = second compound 0.316 µM, first compound 0.0316 µM
[14] = second compound 0.316 µM, first compound 0.1 µM
[15] = second compound 0.316 µM, first compound 0.316 µM
[16] = second compound 0.316 µM, first compound 1 µM
[17] = second compound 0.316 µM, first compound 3.16 µM
[18] = second compound 0.316 µM, first compound 10 µM
[19] = second compound 1 µM, first compound 0.0316 µM
[20] = second compound 1 µM, first compound 0.1 µM
[21] = second compound 1 µM, first compound 0.316 µM
[22] = second compound 1 µM, first compound 1 µM
[23] = second compound 1 µM, first compound 3.16 µM
[24] = second compound 1 µM, first compound 10 µM
[25] = second compound 3.16 µM, first compound 0.0316 µM
[26] = second compound 3.16 µM, first compound 0.1 µM
[27] = second compound 3.16 µM, first compound 0.316 µM
[28] = second compound 3.16 µM, first compound 1 µM
[29] = second compound 3.16 µM, first compound 3.16 µM
[30] = second compound 3.16 µM, first compound 10 µM
[31] = second compound 10 µM, first compound 0.0316 µM
[32] = second compound 10 µM, first compound 0.1 µM
[33] = second compound 10 µM, first compound 0.316 µM
[34] = second compound 10 µM, first compound 1 µM
[35] = second compound 10 µM, first compound 3.16 µM
[36] = second compound 10 µM, first compound 10 µM
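Also: spheroids exposed to drugs for one week before measurement.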
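For viability, T/C in this document: percent viability relative to DMSO vehicle control taken as 100%.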

SMILES: C=CC(=O)N1CCN(c2nc(=O)n(-c3c(C)ccnc3C(C)C)c3nc(-c4c(O)cccc4F)c(F)cc23)C(C)C1 (stereo unspecified) + Nc1ccc(C#CCN(C(=O)Cc2ncc(C(F)(F)F)cc2C(F)(F)F)c2ccc(F)cc2)nn1
- IC50 (second compound 0.0316 µM): > 10 µM
- IC50 (second compound 0.1 µM): > 10 µM
- IC50 (second compound 0.316 µM): > 10 µM
- IC50 (second compound 1 µM): > 10 µM
- IC50 (second compound 3.16 µM): > 10 µM
- IC50 (second compound 10 µM): > 10 µM
- viability, T/C [1]: 77.4%
- viability, T/C [2]: 83.6%
- viability, T/C [3]: 80%
- viability, T/C [4]: 84.9%
- viability, T/C [5]: 88.7%
- viability, T/C [6]: 70.2%
- viability, T/C [7]: 86.9%
- viability, T/C [8]: 75.2%
- viability, T/C [9]: 80.7%
- viability, T/C [10]: 86.2%
- viability, T/C [11]: 81.7%
- viability, T/C [12]: 76.9%
- viability, T/C [13]: 93.5%
- viability, T/C [14]: 76.9%
- viability, T/C [15]: 66.2%
- viability, T/C [16]: 82.2%
- viability, T/C [17]: 77.9%
- viability, T/C [18]: 78.4%
- viability, T/C [19]: 96.2%
- viability, T/C [20]: 78.1%
- viability, T/C [21]: 81.6%
- viability, T/C [22]: 79.1%
- viability, T/C [23]: 92.7%
- viability, T/C [24]: 79%
- viability, T/C [25]: 83.1%
- viability, T/C [26]: 80%
- viability, T/C [27]: 74.6%
- viability, T/C [28]: 82.2%
- viability, T/C [29]: 85.9%
- viability, T/C [30]: 64.5%
- viability, T/C [31]: 90.3%
- viability, T/C [32]: 80.8%
- viability, T/C [33]: 73.5%
- viability, T/C [34]: 79.1%
- viability, T/C [35]: 79.7%
- viability, T/C [36]: 77.4%

SMILES: CC(C)n1c(=O)n(C)c2cnc3cc(F)c(-c4ccc(OCCCN5CCCCC5)nc4)cc3c21 + Nc1ccc(C#CCN(C(=O)Cc2ncc(C(F)(F)F)cc2C(F)(F)F)c2ccc(F)cc2)nn1
- IC50 (second compound 0.0316 µM): > 10 µM
- IC50 (second compound 0.1 µM): > 10 µM
- IC50 (second compound 0.316 µM): > 10 µM
- IC50 (second compound 1 µM): > 10 µM
- IC50 (second compound 3.16 µM): > 10 µM
- IC50 (second compound 10 µM): > 10 µM
- viability, T/C [1]: 112%
- viability, T/C [2]: 105%
- viability, T/C [3]: 105%
- viability, T/C [4]: 111%
- viability, T/C [5]: 109%
- viability, T/C [6]: 72.9%
- viability, T/C [7]: 105%
- viability, T/C [8]: 102%
- viability, T/C [9]: 121%
- viability, T/C [10]: 105%
- viability, T/C [11]: 102%
- viability, T/C [12]: 78.7%
- viability, T/C [13]: 126%
- viability, T/C [14]: 123%
- viability, T/C [15]: 89.7%
- viability, T/C [16]: 108%
- viability, T/C [17]: 97.3%
- viability, T/C [18]: 84.5%
- viability, T/C [19]: 105%
- viability, T/C [20]: 102%
- viability, T/C [21]: 91.8%
- viability, T/C [22]: 105%
- viability, T/C [23]: 93.1%
- viability, T/C [24]: 79.7%
- viability, T/C [25]: 115%
- viability, T/C [26]: 109%
- viability, T/C [27]: 113%
- viability, T/C [28]: 116%
- viability, T/C [29]: 96.7%
- viability, T/C [30]: 78.3%
- viability, T/C [31]: 93.5%
- viability, T/C [32]: 81.5%
- viability, T/C [33]: 98.1%
- viability, T/C [34]: 86.6%
- viability, T/C [35]: 79.5%
- viability, T/C [36]: 71.5%

SMILES: CC1COCCN1c1cc(-c2ccnn2C)c2ccnc(-c3ccn[nH]3)c2n1 (stereo unspecified) + Nc1ccc(C#CCN(C(=O)Cc2ncc(C(F)(F)F)cc2C(F)(F)F)c2ccc(F)cc2)nn1
- IC50 (second compound 0.0316 µM): 0.311 µM
- IC50 (second compound 0.1 µM): 0.226 µM
- IC50 (second compound 0.316 µM): 0.295 µM
- IC50 (second compound 1 µM): 0.264 µM
- IC50 (second compound 3.16 µM): 0.179 µM
- IC50 (second compound 10 µM): 0.16 µM
- viability, T/C [1]: 87.8%
- viability, T/C [2]: 80.3%
- viability, T/C [3]: 43.7%
- viability, T/C [4]: 36.3%
- viability, T/C [5]: 22.3%
- viability, T/C [6]: 18.7%
- viability, T/C [7]: 102%
- viability, T/C [8]: 70.9%
- viability, T/C [9]: 41.9%
- viability, T/C [10]: 27.8%
- viability, T/C [11]: 23.2%
- viability, T/C [12]: 25.4%
- viability, T/C [13]: 102%
- viability, T/C [14]: 70.5%
- viability, T/C [15]: 50.4%
- viability, T/C [16]: 31.2%
- viability, T/C [17]: 28.1%
- viability, T/C [18]: 19.5%
- viability, T/C [19]: 88.7%
- viability, T/C [20]: 68.5%
- viability, T/C [21]: 43.8%
- viability, T/C [22]: 33.8%
- viability, T/C [23]: 31.2%
- viability, T/C [24]: 19.6%
- viability, T/C [25]: 84.7%
- viability, T/C [26]: 62.6%
- viability, T/C [27]: 36.3%
- viability, T/C [28]: 32.4%
- viability, T/C [29]: 19.9%
- viability, T/C [30]: 25.4%
- viability, T/C [31]: 82.5%
- viability, T/C [32]: 54.6%
- viability, T/C [33]: 42.6%
- viability, T/C [34]: 33.2%
- viability, T/C [35]: 20.7%
- viability, T/C [36]: 25.2%
